Measured values from the supplement of paper PMC10307832.

What follows are cell lines tested with CC1=C(C(=NN1)C)CC2=C(C3=C(S2)N(C(=O)N(C3=O)C)CC(C)C)C(=O)N4C[C@@H](CO4)O + Nc1nc2[nH]cc(CCc3ccc(C(=O)N[C@@H](CCC(=O)O)C(=O)O)cc3)c2c(=O)[nH]1 [Pemetrexed] (partner 0.2 µM) (assay: relative viability (nuclei count vs DMSO), 5 days (fraction); higher = more cells survive). Conditions: first compound 0.0025 µM.
Outline: (§1)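 One day after seeding in 1536-well plates, lung cancer cell lines were dosed by pin tool. Dosing was either single-drug or a fixed anchor-drug dose plus five library-drug doses (not always all listed) in √10 steps. After 5 days, nuclei were stained in one fix-and-stain step and counted on 4× images, and relative viability is the nuclei count of treated wells over that of vehicle wells, given as the median of duplicate plates.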

| Cell Line | relative viability |
| --- | --- |
| NCI-H1755 | 0.42 |
| NCI-H2023 | 0.249 |
| HCC-15 | 0.214 |
| PC-14 | 0.158 |
| EKVX | 0.365 |
| LC-2-ad | 0.27 |
| NCI-H1975 | 0.317 |
| RERF-LC-KJ | 0.46 |
| NCI-H650 | 0.983 |
| PC-3 [JPC-3] | 1.11 |

Same assay, conditions: first compound 0.007906 µM

| Cell Line | relative viability |
| --- | --- |
| NCI-H3122 | 0.202 |
| NCI-H1437 | 0.322 |
| NCI-H1755 | 0.424 |
| NCI-H2023 | 0.258 |
| HCC-15 | 0.214 |
| PC-14 | 0.126 |
| EKVX | 0.429 |
| LC-2-ad | 0.25 |
| NCI-H1975 | 0.297 |
| RERF-LC-KJ | 0.468 |
| NCI-H650 | 0.989 |
| PC-3 [JPC-3] | 1.03 |

Same assay, conditions: first compound 0.025 µM

| Cell Line | relative viability |
| --- | --- |
| NCI-H3122 | 0.185 |
| NCI-H1437 | 0.331 |
| NCI-H1755 | 0.424 |
| NCI-H2023 | 0.224 |
| HCC-15 | 0.225 |
| PC-14 | 0.155 |
| EKVX | 0.412 |
| LC-2-ad | 0.26 |
| NCI-H1975 | 0.283 |
| RERF-LC-KJ | 0.463 |
| NCI-H650 | 0.775 |
| PC-3 [JPC-3] | 1.01 |

Same assay, conditions: first compound 0.07906 µM

| Cell Line | relative viability |
| --- | --- |
| NCI-H3122 | 0.187 |
| NCI-H1437 | 0.354 |
| NCI-H1755 | 0.425 |
| NCI-H2023 | 0.233 |
| HCC-15 | 0.215 |
| PC-14 | 0.122 |
| EKVX | 0.293 |
| LC-2-ad | 0.285 |
| NCI-H1975 | 0.268 |
| RERF-LC-KJ | 0.511 |
| NCI-H650 | 0.949 |
| PC-3 [JPC-3] | 1.27 |

Same assay, conditions: first compound 0.25 µM

| Cell Line | relative viability |
| --- | --- |
| NCI-H3122 | 0.216 |
| NCI-H1437 | 0.316 |
| NCI-H1755 | 0.422 |
| NCI-H2023 | 0.225 |
| HCC-15 | 0.211 |
| PC-14 | 0.121 |
| EKVX | 0.422 |
| LC-2-ad | 0.261 |
| NCI-H1975 | 0.287 |
| RERF-LC-KJ | 0.503 |
| NCI-H650 | 0.957 |
| PC-3 [JPC-3] | 0.834 |

What follows are cell lines tested with Cc1ccccc1C(C(=O)NC1CCCCC1)N(C(=O)Cn1ccnc1C)c1cccc(F)c1 [IDH-C35] + CC(C)C[C@H](NC(=O)[C@H](Cc1ccccc1)NC(=O)c1cnccn1)B(O)O [Bortezomib] (partner 0.002 µM) in the same assay as above. Conditions: first compound 0.08 µM.
Outline: as §1

| Cell Line | relative viability |
| --- | --- |
| NCI-H3122 | 1.1 |
| NCI-H1437 | 0.629 |
| NCI-H1755 | 0.885 |
| NCI-H2023 | 0.998 |
| HCC-15 | 1.03 |
| PC-14 | 0.983 |
| EKVX | 1.18 |
| LC-2-ad | 1.01 |
| NCI-H1975 | 0.383 |
| RERF-LC-KJ | 1.09 |
| NCI-H650 | 0.774 |
| PC-3 [JPC-3] | 0.854 |

Same assay, conditions: first compound 0.253 µM

| Cell Line | relative viability |
| --- | --- |
| NCI-H3122 | 1.01 |
| NCI-H1437 | 0.456 |
| NCI-H1755 | 1.04 |
| NCI-H2023 | 1.13 |
| HCC-15 | 0.958 |
| PC-14 | 0.897 |
| EKVX | 0.995 |
| LC-2-ad | 1.03 |
| NCI-H1975 | 0.376 |
| RERF-LC-KJ | 1.08 |
| NCI-H650 | 0.93 |
| PC-3 [JPC-3] | 0.868 |

Same assay, conditions: first compound 0.8 µM

| Cell Line | relative viability |
| --- | --- |
| NCI-H3122 | 0.985 |
| NCI-H1437 | 0.451 |
| NCI-H1755 | 0.881 |
| NCI-H2023 | 1.01 |
| HCC-15 | 1.01 |
| PC-14 | 0.792 |
| EKVX | 0.995 |
| LC-2-ad | 1.01 |
| NCI-H1975 | 0.421 |
| RERF-LC-KJ | 1.1 |
| NCI-H650 | 0.755 |
| PC-3 [JPC-3] | 0.849 |

Same assay, conditions: first compound 2.53 µM

| Cell Line | relative viability |
| --- | --- |
| NCI-H3122 | 1.02 |
| NCI-H1437 | 0.639 |
| NCI-H1755 | 0.971 |
| NCI-H2023 | 0.349 |
| HCC-15 | 0.936 |
| PC-14 | 0.834 |
| EKVX | 1.04 |
| LC-2-ad | 1.04 |
| NCI-H1975 | 0.354 |
| RERF-LC-KJ | 1.2 |
| PC-3 [JPC-3] | 0.856 |

Same assay, conditions: first compound 8 µM

| Cell Line | relative viability |
| --- | --- |
| NCI-H3122 | 1.02 |
| NCI-H1437 | 0.548 |
| NCI-H1755 | 0.933 |
| NCI-H2023 | 0.911 |
| HCC-15 | 0.982 |
| PC-14 | 0.767 |
| EKVX | 0.993 |
| LC-2-ad | 0.935 |
| NCI-H1975 | 0.315 |
| RERF-LC-KJ | 1.19 |
| NCI-H650 | 0.861 |
| PC-3 [JPC-3] | 0.813 |
